Reference: patent publication US8410302B2, “Methoxyimino compounds and fungicide composition comprising same” (Kyung Nong Corporation, priority 2007, dated 2013)

What was measured:
Erysiphae graminis = experiment: Fungicidal activity against barley powdery mildew (BPM) disease, control value; assay type: in vivo; conditions: barley powdery mildew; for pest or weed control at 2 ppm / pest or weed control at 10 ppm / pest or weed control at 50 ppm / pest or weed control at 100 ppm: Hordeum vulgare, 168 h, read-out: BPM control value (C.V.)
[1] = test system: Pyricularia oryzae Carvara KA301; experiment: whole plant or invertebrate; assay type: in vivo; conditions: for pest or weed control at 2 ppm / pest or weed control at 10 ppm / pest or weed control at 50 ppm / pest or weed control at 100 ppm: Pyricularia oryzae, read-out: RCB control value (C.V.); for RCB control value (C.V.): rice blast
Puccinia recondita = experiment: Fungicidal activity against wheat leaf rust (WLR) disease, control value; assay type: in vivo; conditions: wheat leaf rust; for pest or weed control at 2 ppm / pest or weed control at 10 ppm / pest or weed control at 50 ppm / pest or weed control at 100 ppm: read-out: WLR control value (C.V.)
Botrytis cinerae = experiment: Fungicidal activity against cucumber gray mold rot (CGM) disease, control value; assay type: in vivo; conditions: 100 ppm, cucumber gray mold rot; for pest or weed control at 100 ppm: Botrytis, read-out: CGM control value (C.V.)
Phytophthora infestans = experiment: whole plant or invertebrate; assay type: in vivo; conditions: for pest or weed control at 100 ppm: Phytophthora infestans, in Solanum lycopersicum, read-out: TLB control value (C.V.); for TLB control value (C.V.): tomato late blight
Rhizoctonia solani AG-1 = experiment: Fungicidal activity against rice sheath blight (RSB) disease, control value; conditions: for pest or weed control at 2 ppm / pest or weed control at 10 ppm / pest or weed control at 50 ppm / pest or weed control at 100 ppm: Rhizoctonia solani, AG1, in Oryza sativa, read-out: RSB control value (C.V.); for RSB control value (C.V.): rice sheath blight

| SMILES | pest or weed control at 2 ppm (Erysiphae graminis; 2 ppm) [%] | pest or weed control at 10 ppm (Erysiphae graminis; 10 ppm) [%] | pest or weed control at 50 ppm (Erysiphae graminis; 50 ppm) [%] | pest or weed control at 100 ppm (Erysiphae graminis; 100 ppm) [%] | pest or weed control at 2 ppm [1] [%] | pest or weed control at 10 ppm [1] [%] | pest or weed control at 50 ppm [1] [%] | pest or weed control at 100 ppm [1] [%] | pest or weed control at 2 ppm (Puccinia recondita; 2 ppm) [%] | pest or weed control at 10 ppm (Puccinia recondita; 10 ppm) [%] | pest or weed control at 50 ppm (Puccinia recondita; 50 ppm) [%] | pest or weed control at 100 ppm (Puccinia recondita; 100 ppm) [%] | BPM control value (C.V.) (Erysiphae graminis; 100 ppm) [%] | RCB control value (C.V.) ([1]; 50 ppm) [%] | RCB control value (C.V.) ([1]; 100 ppm) [%] | WLR control value (C.V.) (Puccinia recondita; 50 ppm) [%] | WLR control value (C.V.) (Puccinia recondita; 100 ppm) [%] | CGM control value (C.V.) (Botrytis cinerae) [%] | TLB control value (C.V.) (Phytophthora infestans; 100 ppm) [%] | RSB control value (C.V.) (Rhizoctonia solani AG-1; 100 ppm) [%] | other results |
| --- | --- | --- | --- | --- | --- | --- | --- | --- | --- | --- | --- | --- | --- | --- | --- | --- | --- | --- | --- | --- | --- |
| CNC(=O)/C(=N/OC)c1ccccc1COc1ccc(C=C(Cl)Cl)cc1Cl [Example 40, (E)-2-(2-((2-chloro-4-(2,2-dichlorovinyl)phenoxy)methyl)phenyl)-2-methoxyimino-N-methylacetamide] | 100 | 100 | 100 | 100 | 100 | 100 | 100 | 100 | 100 | 100 | 100 | 100 |  |  |  |  |  |  |  |  | pest or weed control at 100 ppm (Botrytis cinerae): 10%; pest or weed control at 100 ppm (Phytophthora infestans): 30%; pest or weed control at 2 ppm (Rhizoctonia solani AG-1): 100%; pest or weed control at 10 ppm (Rhizoctonia solani AG-1): 100%; pest or weed control at 50 ppm (Rhizoctonia solani AG-1): 100%; pest or weed control at 100 ppm (Rhizoctonia solani AG-1): 100% |
| CO/N=C(/C(=O)OC)c1ccccc1CON=C(C)c1ccc(C=C(F)Cl)cc1 [Example 33, methyl-(E)-2-[[[[[2-[4-(2-chloro-2-fluorovinyl)phenyl](1-methyl)methylidene]amino]oxy]methyl]phenyl]-2-methoxyiminoacetate] |  |  |  |  |  |  |  |  |  |  |  |  | 80 | 70 | 95 | 40 | 90 | 15 | 60 | 67 |  |
| CNC(=O)/C(=N/OC)c1ccccc1CON=C(C)c1cccc(C=C(Br)Br)c1 [Example 24, (E)-2-[[[[[2-[3-(2,2-dibromovinyl)phenyl](1-methyl)methylidene]amino]oxy]methyl]phenyl]-2-methoxyimino-N-methylacetamide] |  |  |  |  |  |  |  |  |  |  |  |  | 100 | 100 | 100 | 95 | 98 | 60 | 50 | 100 | BPM control value (C.V.) (Erysiphae graminis; 2 ppm): 10%; BPM control value (C.V.) (Erysiphae graminis; 10 ppm): 60%; BPM control value (C.V.) (Erysiphae graminis; 50 ppm): 90%; RCB control value (C.V.) ([1]; 2 ppm): 98%; RCB control value (C.V.) ([1]; 10 ppm): 100%; WLR control value (C.V.) (Puccinia recondita; 2 ppm): 0%; WLR control value (C.V.) (Puccinia recondita; 10 ppm): 35%; RSB control value (C.V.) (Rhizoctonia solani AG-1; 2 ppm): 30%; RSB control value (C.V.) (Rhizoctonia solani AG-1; 10 ppm): 90%; RSB control value (C.V.) (Rhizoctonia solani AG-1; 50 ppm): 100% |
| CNC(=O)/C(=N/OC)c1ccccc1CON=C(C)c1ccc(C=C(Br)Br)cc1 [Example 26, (E)-2-[[[[[2-[4-(2,2-dibromovinyl)phenyl](1-methyl)methylidene]amino]oxy]methyl]phenyl]-2-methoxyimino-N-methylacetamide] |  |  |  |  |  |  |  |  |  |  |  |  | 100 | 100 | 100 | 98 | 100 | 7 | 100 | 32 | BPM control value (C.V.) (Erysiphae graminis; 2 ppm): 99%; BPM control value (C.V.) (Erysiphae graminis; 10 ppm): 100%; BPM control value (C.V.) (Erysiphae graminis; 50 ppm): 100%; RCB control value (C.V.) ([1]; 2 ppm): 90%; RCB control value (C.V.) ([1]; 10 ppm): 97%; WLR control value (C.V.) (Puccinia recondita; 2 ppm): 90%; WLR control value (C.V.) (Puccinia recondita; 10 ppm): 90%; TLB control value (C.V.) (Phytophthora infestans; 2 ppm): 98%; TLB control value (C.V.) (Phytophthora infestans; 10 ppm): 100%; TLB control value (C.V.) (Phytophthora infestans; 50 ppm): 100% |
| CNC(=O)/C(=N/OC)c1ccccc1COc1cccc(C=C(Br)Br)c1 [Example 6, (E)-2-(2-((3-(2,2-dibromovinyl)phenoxy)methyl)phenyl)-2-methoxyimino-N-methylacetamide] | 0 | 30 | 90 | 97 | 98 | 100 | 100 | 100 | 0 | 35 | 95 | 98 |  |  |  |  |  |  |  |  | pest or weed control at 100 ppm (Botrytis cinerae): 60%; pest or weed control at 100 ppm (Phytophthora infestans): 50%; pest or weed control at 2 ppm (Rhizoctonia solani AG-1): 30%; pest or weed control at 10 ppm (Rhizoctonia solani AG-1): 90%; pest or weed control at 50 ppm (Rhizoctonia solani AG-1): 100%; pest or weed control at 100 ppm (Rhizoctonia solani AG-1): 100% |
